# Laboratory results taken from the supplement of paper PMC10307832.
# Experiments:
# Test in all cases: relative viability (nuclei count vs DMSO), 5 days (fraction); higher = more cells survive
# IMD-0354 + Decitabine = compound: O=C(Nc1cc(C(F)(F)F)cc(C(F)(F)F)c1)c1cc(Cl)ccc1O [IMD-0354] + Nc1ncn([C@H]2C[C@H](O)[C@@H](CO)O2)c(=O)n1 [Decitabine] (partner 2 µM)
# Outline: (§1)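 Relative viability was taken as the ratio of nuclei in treated wells to nuclei in vehicle wells. Lung cancer cell lines in 1536-well plates received compounds by pin tool one day after seeding, either one drug alone or a fixed anchor-drug dose plus five library-drug doses (not always all listed) in √10 steps. Nuclei were counted on 4× images after 5 days of treatment, and values are medians of duplicate plates.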
# CX-5461 + Decitabine = compound: Cc1cnc(CNC(=O)c2c(=O)c3ccc(N4CCCN(C)CC4)nc3n3c2sc2ccccc23)cn1 [CX-5461] + Nc1ncn([C@H]2C[C@H](O)[C@@H](CO)O2)c(=O)n1 [Decitabine] (partner 2 µM)
# Outline: as §1
# CX-5461 + Foretinib = compound: Cc1cnc(CNC(=O)c2c(=O)c3ccc(N4CCCN(C)CC4)nc3n3c2sc2ccccc23)cn1 [CX-5461] + COc1cc2c(Oc3ccc(NC(=O)C4(C(=O)Nc5ccc(F)cc5)CC4)cc3F)ccnc2cc1OCCCN1CCOCC1 [Foretinib] (partner 0.25 µM)
# Outline: as §1
# IMD-0354 + Navitoclax = compound: O=C(Nc1cc(C(F)(F)F)cc(C(F)(F)F)c1)c1cc(Cl)ccc1O [IMD-0354] + CC1(C)CCC(c2ccc(Cl)cc2)=C(CN2CCN(c3ccc(C(=O)NS(=O)(=O)c4ccc(N[C@H](CCN5CCOCC5)CSc5ccccc5)c(S(=O)(=O)C(F)(F)F)c4)cc3)CC2)C1 [Navitoclax] (partner 0.5 µM)
# Outline: as §1
Cell Line,relative viability (IMD-0354 + Decitabine; first compound 0.04 µM),relative viability (IMD-0354 + Decitabine; first compound 0.1265 µM),relative viability (IMD-0354 + Decitabine; first compound 0.4 µM),relative viability (IMD-0354 + Decitabine; first compound 1.265 µM),relative viability (IMD-0354 + Decitabine; first compound 4 µM),relative viability (CX-5461 + Decitabine; first compound 0.01 µM),relative viability (CX-5461 + Decitabine; first compound 0.03162 µM),relative viability (CX-5461 + Decitabine; first compound 0.1 µM),relative viability (CX-5461 + Decitabine; first compound 0.3162 µM),relative viability (CX-5461 + Decitabine; first compound 1 µM),relative viability (CX-5461 + Foretinib; first compound 0.01 µM),relative viability (CX-5461 + Foretinib; first compound 0.03162 µM),relative viability (CX-5461 + Foretinib; first compound 0.1 µM),relative viability (CX-5461 + Foretinib; first compound 0.3162 µM),relative viability (CX-5461 + Foretinib; first compound 1 µM),relative viability (IMD-0354 + Navitoclax; first compound 0.04 µM),relative viability (IMD-0354 + Navitoclax; first compound 0.1265 µM),relative viability (IMD-0354 + Navitoclax; first compound 0.4 µM),relative viability (IMD-0354 + Navitoclax; first compound 1.265 µM),relative viability (IMD-0354 + Navitoclax; first compound 4 µM)
LU99A,0.565,0.885,0.539,0.617,0.293,0.925,0.958,0.923,0.594,0.79,0.818,0.797,0.764,0.495,0.798,0.644,0.808,0.654,0.479,0.148
LXF-289,0.375,0.312,0.393,0.356,0.201,0.412,0.377,0.404,–,0.351,0.998,1.02,0.974,0.402,0.902,0.927,0.88,0.789,0.666,0.0776
NCI-H23,0.271,0.313,0.295,0.192,0.24,0.371,0.344,0.363,0.299,0.268,0.874,1.15,0.98,0.938,1.08,0.893,0.814,0.54,0.394,0.207
NCI-H322M,0.747,0.583,0.617,0.403,0.404,0.716,0.701,0.637,0.572,0.614,0.834,0.995,0.937,0.394,0.7,1.27,1.23,1.12,1.5,0.267
NCI-H441,0.223,0.256,0.247,0.131,0.146,0.234,0.206,0.214,0.275,0.191,0.88,1.02,0.615,0.889,0.778,–,0.473,0.38,0.164,0.217
NCI-H460,0.401,0.561,0.183,0.0498,0.0274,0.551,0.429,0.228,0.391,0.0313,0.912,0.955,–,1.04,0.0917,1.21,0.977,0.0491,0.0709,0.0241
NCI-H520,0.512,0.462,0.435,0.158,0.192,0.529,0.52,0.483,0.465,0.362,0.748,0.677,0.721,0.503,0.725,1.25,0.928,0.473,0.159,0.254
NCI-H596,1.02,0.998,0.825,0.849,0.616,1.14,0.994,1.06,1.05,0.872,0.896,1.18,0.888,1.03,0.97,0.96,0.854,0.777,0.982,0.476
NCI-H647,0.381,0.426,0.237,0.117,0.106,0.443,0.461,0.325,0.417,0.15,1.21,1.25,1.26,1.05,1,1.47,1.57,0.521,0.198,0.068
NCI-H727,0.827,0.864,0.788,0.502,0.405,0.89,0.917,0.839,0.83,0.956,0.96,1.14,0.949,0.722,0.837,0.407,0.319,0.423,0.165,0.205
NCI-H838,0.482,0.443,0.345,0.243,0.272,0.475,0.479,0.47,0.429,0.332,1.11,1.1,1.16,–,0.931,1.16,1.21,0.468,0.314,0.251
NCI-H1355,0.397,0.373,0.327,0.274,0.21,0.356,0.34,0.395,0.371,0.348,1.03,1.01,1.01,0.943,0.95,1.03,0.932,0.82,0.916,0.185
NCI-H1395,0.74,0.645,0.713,0.358,0.402,0.764,0.673,0.805,0.653,0.532,0.959,0.916,0.884,0.988,0.737,1.15,1.24,0.931,0.389,0.311
